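In this assay, cells in 96-well plates receive the compound at five concentrations for 48 hours. Endpoints are linearly interpolated between the surrounding concentrations. GI50: concentration for 50% inhibition of growth.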 Active and inactive are the calls of the source. No stated cut-off is given here; in the data, active = GI50 up to about 1.1 µM and inactive = higher.
Experiments:
Assay in all cases: NCI anticancer screen, dose series, 48 h
[1] = test system: OVCAR-5
[2] = test system: TK-10
[3] = test system: 786-0
[4] = test system: SK-OV-3
[5] = test system: U-251
[6] = test system: EKVX
[7] = test system: SF-295
[8] = test system: ACHN
[9] = test system: CAKI-1
[10] = test system: RPMI-8226
[11] = test system: IGROV-1
[12] = test system: SK-MEL-5
[13] = test system: KM12
[14] = test system: HCC 2998
[15] = test system: SNB-19
[16] = test system: A549
[17] = test system: HOP-62
[18] = test system: OVCAR-8
[19] = test system: SF-539
[20] = test system: HL-60

Measured: GI50

C/C(=N\NC(=S)N1CCN(c2ccccn2)CC1)c1ncccn1
inactive: [2] 2.67 µM | [9] 1.76 µM | [15] 2.56 µM
active: [1] 0.0303 µM | [3] 0.0601 µM | [4] 0.284 µM | [5] 0.0369 µM | [6] 0.291 µM | [7] 0.0594 µM | [8] 0.0693 µM | [10] 0.0131 µM | [11] 0.00275 µM | [12] 0.109 µM | [13] 0.254 µM | [14] 0.361 µM | [16] 0.166 µM | [17] 0.106 µM | [18] 0.0289 µM | [19] 0.527 µM | [20] 0.00752 µM

N#Cc1cc([N+](=O)[O-])ccc1NC(=O)C(=O)Nc1n[nH]c(N)n1
inactive: [1] > 100 µM | [2] > 100 µM | [3] > 100 µM | [4] > 100 µM | [5] > 100 µM | [6] > 100 µM | [8] > 100 µM | [9] > 100 µM | [10] > 100 µM | [11] > 100 µM | [12] > 100 µM | [13] > 100 µM | [14] > 100 µM | [15] > 100 µM | [16] > 100 µM | [17] > 100 µM | [18] > 100 µM | [19] > 100 µM | [20] > 100 µM

Cc1ccc(S(=O)(=O)N(CC(O)COc2ccccc2)c2c(F)c(F)c(F)c(F)c2F)cc1 (centres undefined)
active: [9] 0.237 µM | [10] 1.04 µM
inactive: [1] 18.3 µM | [2] 24.7 µM | [3] 19.5 µM | [4] 19.9 µM | [5] 13.2 µM | [6] 17.9 µM | [7] 17.1 µM | [8] 15.7 µM | [12] 12.4 µM | [13] 20.7 µM | [14] 17.3 µM | [15] 18.5 µM | [16] 13.4 µM | [17] 16.7 µM | [18] 17.1 µM | [19] 19.8 µM | [20] 6.32 µM

CCOC(OC(C)=O)[C@@H]1C=C[C@H](C)N(c2ccc([N+](=O)[O-])cc2)O1 (some centres undefined)
inactive: [1] 2.76 µM | [2] 5.7 µM | [3] 2.67 µM | [4] 17.8 µM | [5] 2.74 µM | [6] 16.1 µM | [7] 11.4 µM | [8] 5.13 µM | [9] 7.8 µM | [10] 2.06 µM | [11] 7.98 µM | [12] 4 µM | [13] 2.5 µM | [14] 11.9 µM | [15] 14.7 µM | [16] 20.2 µM | [17] 10.7 µM | [18] 2.02 µM | [19] 2.54 µM | [20] 1.82 µM

Nc1ccccc1C(=O)/C=C/c1ccccc1O
inactive: [1] > 100 µM | [2] 93.5 µM | [3] 57 µM | [4] > 100 µM | [5] 95.9 µM | [6] > 100 µM | [7] > 100 µM | [9] 25.6 µM | [10] 27.5 µM | [11] > 100 µM | [12] 65 µM | [13] 31 µM | [14] 32.3 µM | [15] 81.1 µM | [16] 45.5 µM | [17] > 100 µM | [18] 50.8 µM | [19] 78.7 µM | [20] 22.8 µM

O=C(C=C1SCCS1)/C=C\c1ccc(Cl)cc1
inactive: [2] 97.5 µM | [3] > 100 µM | [4] > 100 µM | [6] > 100 µM | [7] > 100 µM | [9] > 100 µM | [10] 31.5 µM | [11] > 100 µM | [12] > 100 µM | [13] 87.1 µM | [14] 26.4 µM | [15] > 100 µM | [16] > 100 µM | [17] > 100 µM | [18] > 100 µM | [19] > 100 µM | [20] 56.9 µM

c1ccc(-c2nc(-c3ccccc3)c(-c3ccccc3)[nH]2)cc1
inactive: [1] > 100 µM | [2] > 100 µM | [3] 54 µM | [4] > 100 µM | [5] 42.3 µM | [6] > 83.6 µM | [7] > 100 µM | [8] > 100 µM | [9] > 100 µM | [10] > 47.6 µM | [11] > 91.6 µM | [12] > 100 µM | [13] > 93.8 µM | [14] > 100 µM | [15] > 100 µM | [16] > 100 µM | [17] > 85.5 µM | [18] > 66.1 µM | [19] > 100 µM | [20] 18.1 µM
